According to the supplement of paper PMC10307832:

What was measured:
Assay in all cases: relative viability (nuclei count vs DMSO), 5 days (fraction); higher = more cells survive
[1] = compound: C=CCn1c(=O)c2cnc(Nc3ccc(N4CCN(C)CC4)cc3)nc2n1-c1cccc(C(C)(C)O)n1 [Adavosertib] + Nc1ncn([C@H]2C[C@H](O)[C@@H](CO)O2)c(=O)n1 [Decitabine] (partner 2 µM)
In short: (§1)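 Nuclei were stained with Hoechst during a one-step fixation (final 0.05% Triton X-100, 1% formaldehyde, 1 ug/ml Hoechst) carried out 5 days after dosing, then counted on 4× images. The cells, lung cancer lines in 1536-well plates, had been dosed by pin tool the day after seeding with one drug alone or a fixed anchor-drug dose plus five library-drug doses (not always all listed) in √10 steps. Relative viability is the nuclei count in treated wells divided by that in vehicle wells, and each value is the median of duplicate plates.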

[2] = compound: C=CCn1c(=O)c2cnc(Nc3ccc(N4CCN(C)CC4)cc3)nc2n1-c1cccc(C(C)(C)O)n1 [Adavosertib] + COc1cccc2cc(-c3nc([C@H]4CC[C@H](C(=O)O)CC4)n4ncnc(N)c34)[nH]c12 [OSI-027] (partner 0.5 µM)
In short: as §1

[3] = compound: C=CCn1c(=O)c2cnc(Nc3ccc(N4CCN(C)CC4)cc3)nc2n1-c1cccc(C(C)(C)O)n1 [Adavosertib] + C[C@@H](Oc1cc(-c2cnn(C3CCNCC3)c2)cnc1N)c1c(Cl)ccc(F)c1Cl [Crizotinib] (partner 1 µM)
In short: as §1

[4] = compound: COc1nc(N)nc2c1ncn2[C@@H]1O[C@H](CO)[C@@H](O)[C@@H]1O [Nelarabine] + COc1cccc2cc(-c3nc([C@H]4CC[C@H](C(=O)O)CC4)n4ncnc(N)c34)[nH]c12 [OSI-027] (partner 0.5 µM)
In short: as §1

Row | Cell Line | relative viability ([1]; first compound 0.01 µM) | relative viability ([1]; first compound 0.03162 µM) | relative viability ([1]; first compound 0.1 µM) | relative viability ([1]; first compound 0.3162 µM) | relative viability ([2]; first compound 0.01 µM) | relative viability ([2]; first compound 0.03162 µM) | relative viability ([2]; first compound 0.1 µM) | relative viability ([2]; first compound 0.3162 µM) | relative viability ([3]; first compound 0.01 µM) | relative viability ([3]; first compound 0.03162 µM) | relative viability ([3]; first compound 0.1 µM) | relative viability ([3]; first compound 0.3162 µM) | relative viability ([4]; first compound 0.01 µM) | relative viability ([4]; first compound 0.03162 µM) | relative viability ([4]; first compound 0.1 µM) | relative viability ([4]; first compound 0.3162 µM) | relative viability ([4]; first compound 1 µM)
1 | ChaGo-K-1 | 0.554 | 0.518 | 0.469 | 0.534 | 0.546 | 0.633 | 0.511 | 0.591 | 1.05 | 1.05 | 1.21 | 1.12 | 0.676 | 0.444 | 0.663 | 0.758 | 0.589
2 | SW 1573 | 0.503 | 0.535 | 0.663 | 0.291 | 0.645 | 0.626 | 0.882 | 0.278 | 0.797 | 0.879 | 1.09 | 0.845 | 1.19 | 0.836 | 0.548 | 0.701 | 0.619
3 | NCI-H23 | 0.299 | 0.31 | 0.255 | 0.246 | 0.604 | 0.631 | 0.553 | 0.327 | 0.532 | 0.558 | 0.517 | 0.432 | 0.686 | 0.504 | 0.512 | 0.738 | 0.62
4 | NCI-H1299 |  |  |  |  |  |  |  |  | 0.929 | 0.936 | 0.96 | 0.49 |  |  |  |  | 
5 | NCI-H1944 | 0.415 | 0.439 | 0.448 | 0.369 | 0.378 | 0.429 | 0.394 | 0.402 | 1.14 | 1.11 | 1.17 | 1.13 | 0.468 | 0.436 | 0.442 | 0.426 | 0.455
6 | PC-3 [JPC-3] |  | 0.906 | 0.926 | 0.78 | 0.805 | 0.743 | 0.775 | 0.731 | 0.996 | 0.905 | 1.06 | 1 | 0.854 | 0.604 | 0.73 | 0.744 | 0.685
7 | NCI-H2126 | 0.518 | 0.596 | 0.512 | 0.568 | 0.569 | 0.697 | 0.769 | 0.727 | 1.05 | 1.01 | 1.08 | 1.07 | 0.761 | 0.724 | 0.641 | 0.771 | 0.66
8 | HCC-827 | 0.15 | 0.344 | 0.341 | 0.214 | 0.779 | 0.832 | 0.738 | 0.724 | 0.895 | 0.943 | 1.03 | 0.929 | 0.741 | 0.738 | 0.76 | 0.595 | 0.65
9 | H3255 | 0.636 | 0.694 | 0.609 | 0.674 | 0.506 | 0.654 | 0.584 | 0.539 | 0.87 | 1.04 | 1.04 | 0.936 |  | 0.653 | 0.637 | 0.585 | 0.456
10 | NCI-H838 | 0.516 | 0.53 | 0.612 | 0.497 | 0.425 | 0.346 | 0.391 | 0.388 | 0.872 | 0.847 | 0.82 | 0.77 | 0.463 | 0.377 | 0.324 | 0.426 | 0.45
